Measured values from patent publication US20250296971A1, “GASTRIC INHIBITORY PEPTIDE RECEPTOR LIGANDS” (priority 2021, published 2025).
One block for each molecule: values may come before it. *1 amine or outer side, *2 acyl side, *3 side chain or, on linkers, in order; H or OH if unused. Where a SMILES comes first, the peptide text is derived from it. Bridges are numbered along the chain shown (N, C = ends). Where no end group is shown, it is not given here. [ ]: non-standard residue; d: D form. The star is where a group is joined. X5 = NC(=O)[C@H](CCCCNC(=O)CN1CCN(CC(=O)O)CCN(CC(=O)O)CCN(CC(=O)O)CC1)NC(=O)CCC(=O)NCCCOCCOCCOCCCN*; Ttds = 1,13-diamino-4,7,10-trioxatridecan-succinamic acid, NCCCOCCOCCOCCCNC(=O)CCC(=O)*; X3 = O=C(O)CN1CCN(CC(=O)O)CCN(CC(=O)NCCCOCCOCCOCCCN*)CCN(CC(=O)O)CC1; DOTA = O=C(O)CN1CCN(CC(=O)O)CCN(CC(=O)*)CCN(CC(=O)O)CC1; Trp(5-Cl) = N[C@@H](Cc1c[nH]c2ccc(Cl)cc12)C(=O)O; mXylylene = c1cc(C[*:1])cc(C[*:2])c1; Ethylenediamine = C(CN[*:2])N[*:1]; Suc = O=C(CCC(=O)[*:2])[*:1]; 3CbBn = 3-carboxybenzyl; Aib = CC(C)(N)C(=O)O

Tests used:
[1] = target: T1, GIPR (CHO-K1-hGIPR cells) (Homo sapiens, UniProt P48546); experiment: FACS binding assay; details: competition with 20 nM GIP-057, 4° C., 1 hour, read-out: pIC50 Category (converted)
T1 construct: host or cells: CHO-K1
T1 sequence (P48546 22-466): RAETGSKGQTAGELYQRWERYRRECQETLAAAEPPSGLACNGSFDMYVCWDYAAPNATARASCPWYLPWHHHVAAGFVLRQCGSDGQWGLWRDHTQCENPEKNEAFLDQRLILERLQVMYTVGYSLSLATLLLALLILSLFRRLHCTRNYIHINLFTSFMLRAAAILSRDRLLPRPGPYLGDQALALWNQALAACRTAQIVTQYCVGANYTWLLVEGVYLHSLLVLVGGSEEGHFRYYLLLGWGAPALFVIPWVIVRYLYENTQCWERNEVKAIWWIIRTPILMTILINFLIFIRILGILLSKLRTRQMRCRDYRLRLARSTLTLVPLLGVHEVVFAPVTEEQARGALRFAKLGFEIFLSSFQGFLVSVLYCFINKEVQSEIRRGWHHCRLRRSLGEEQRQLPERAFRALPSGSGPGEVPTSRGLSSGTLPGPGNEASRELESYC
In short: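 CHO-K1 cells stably expressing human GIPR were detached with Accutase, suspended at 500.000 cells per mL in PBS with 1% FCS, and washed ice-cold. Bound peptide was detected with 1 μg/mL APC-streptavidin for 30 min on ice.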

[2] = Plasma stability assay, mouse plasma; format: in vitro ADME; details: 37° C., % intact compound remaining after 4 h or 24 h
Experimental: (§1) In order to determine the stability of selected compounds of the invention in human and mouse plasma, a plasma stability assay was carried out. Such plasma stability assay measures degradation of compounds of the present invention in blood plasma. This is an important characteristic of a compound as compounds, with the exception of pro-drugs, which rapidly degrade in plasma, generally show poor in vivo efficacy. […] The stability is sufficient for the diagnostic, therapeutic and theragnostic use of these compounds according to the present invention.
(§2) The plasma stability samples were prepared by spiking 50 μL plasma aliquots (all K2EDTA) with 1 μL of a 0.5 mM compound stock solution in DMS0. After vortexing the samples were incubated in a Thermomixer at 37° C. for 0, 4 and 24 hours. After incubation the samples were stored on ice until further treatment. All samples were prepared in duplicates.
(§3) A suitable internal standard was added to each sample (1 μL of a 0.5 mM stock solution in DMSO). Protein precipitation was performed by addition of 250 μL of acetonitrile containing 1% trifluoroacetic acid. After incubation at room temperature for 30 min the precipitate was separated by centrifugation and 150 μL of the supernatant was diluted with 150 μL of 1% aqueous formic acid.
(§4) Additionally, recovery was determined by spiking a pure plasma sample that only contained the internal standard after treatment with a certain amount of the compound.
(§5) Carry-over was evaluated by analysis of a blank sample (20% acetonitrile) after the highest calibration sample.

[3] = target: Recombinant soluble human NEP (Homo sapiens, UniProt P08473); experiment: Proteolytic stability assay against NEP; details: NEP 100 ng/mL, compound 10 μM, 37° C., % intact compound remaining
Sequence of Recombinant soluble human NEP (P08473 52-750 limits assumed): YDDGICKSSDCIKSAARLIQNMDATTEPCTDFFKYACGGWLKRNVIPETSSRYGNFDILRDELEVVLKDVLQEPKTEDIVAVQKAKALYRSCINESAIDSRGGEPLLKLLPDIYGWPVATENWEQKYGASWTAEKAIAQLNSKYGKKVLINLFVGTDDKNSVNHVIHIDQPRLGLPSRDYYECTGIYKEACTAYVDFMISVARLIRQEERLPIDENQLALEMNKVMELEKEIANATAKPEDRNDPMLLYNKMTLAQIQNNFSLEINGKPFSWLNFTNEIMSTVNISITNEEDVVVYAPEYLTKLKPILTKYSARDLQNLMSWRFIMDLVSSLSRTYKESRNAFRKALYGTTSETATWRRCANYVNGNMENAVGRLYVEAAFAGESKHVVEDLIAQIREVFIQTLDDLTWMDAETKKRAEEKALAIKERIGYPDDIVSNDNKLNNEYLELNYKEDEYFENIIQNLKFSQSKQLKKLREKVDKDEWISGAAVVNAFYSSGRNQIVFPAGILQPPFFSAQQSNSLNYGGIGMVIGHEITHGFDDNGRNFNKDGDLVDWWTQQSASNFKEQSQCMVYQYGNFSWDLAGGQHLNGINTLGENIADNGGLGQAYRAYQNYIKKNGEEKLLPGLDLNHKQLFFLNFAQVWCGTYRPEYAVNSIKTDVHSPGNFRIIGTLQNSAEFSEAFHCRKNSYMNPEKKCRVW

[4] = Plasma stability assay, human plasma; format: in vitro ADME; details: 37° C., % intact compound remaining after 4 h or 24 h
Experimental: as §1, §2, §3, §4, §5

[5] = target: T2, human GIPR (HEK-GIPR cells) (Homo sapiens, UniProt P48546); experiment: cAMP assay; format: cell-based; details: 37° C., 30 min, cAMP-Glo
T2 construct: host or cells: HEK293
T2 sequence (P48546 22-466): T1 sequence (P48546 22-466)
Experimental: In order to determine the inhibitory or stimulatory activity of compounds according to the present invention of GIPR-expressing cells, a cAMP activity assay was established.
HEK-GIPR cells were generated by InSCREENeX GmbH (Germany) using the targeting vector pTAR to insert the minimal CMV promoter upstream of the human GIPR cDNA by recombinase-mediated cassette exchange into the pre-tagged HEK293 cell line.
HEK-GIPR cells were cultured in RPMI-1640 medium (Sigma-Aldrich, #R0883) including 10% fetal calf serum (FCS), 8 mM L-glutamine, 100 U/mL penicillin, 100 μg/mL streptomycin and 1 mg/mL Geneticin. Cells were detached with Accutase (Biolegend, #BLD-423201) and diluted in culture medium to a final concentration of 100,000 cells per mL. 100 μL of the cell suspension were transferred to white poly-L-lysine-coated 96-well plates with optical bottom (Nunc, #165306) and incubated overnight in a humidified atmosphere containing 5% CO2 at 37° C.
For cAMP detection, the cAMP-Glo™ Assay (Promega, #V1501) was employed. […] After 10 min of incubation, luminescence was read using a SpectraMax M5 Plate Reader (Molecular Devices).
Relative luminescence values (RLU) were plotted against peptide concentration and four parameter logistic (4PL) curve fitting and calculations of EC50/pEC50 and IC50/pIC50, respectively, were performed using ActivityBase software.

[6] = target: biotinylated extracellular domain of the human GIP receptor (bioGIPR) (human) (UniProt P48546); experiment: SPR single cycle kinetics, bioGIPR captured on chip; category B: pKD 8.1-9.0
[7] = target: biotinylated extracellular domain of the human GIP receptor (bioGIPR) (human) (UniProt P48546); experiment: SPR single cycle kinetics, bioGIPR captured on chip; category C: t1/2 5-2.1 min
[8] = target: human Gastric Inhibitory Peptide Receptor (GIPR) (human) (UniProt P48546); experiment: FACS competition vs biotinylated GIP-057 on CHO-K1-hGIPR cells; category B: pIC50 7.1-8.0

Molecule: GIP(1-30) C-ter. ^natInDOTA
Mean pEC50 ± SD [5]: 12.0 ± 0.1

B1: DOTA-Ttds-Asp-Trp-5Clw-Pro-Glu-leu-[Cys(3CbBn)-Aib-Leu-Ile-en] (peptide)
peptide: {DOTA-Ttds}-DW[Trp(5-Cl)]PE[dL]C[Aib]LI[Ethylenediamine]
modifications: bridge (positions not given here) via 3CbBn; not fully specified (bridges); printed as DOTA-Ttds-Asp-Trp-5Clw-Pro-Glu-leu-[Cys(3CbBn)-Aib-Leu-Ile-en]
pKD [6]: 8.1 to 9 pkd
t1/2 [7]: 2.1 to 5 min
pIC50 [8]: 7.1 to 8 pic50

Now from value to molecule:

IC50 [1]: 10 to 79.4 nM
Mouse plasma stability category [2]: B (>80% intact after 4 hours)
NEP stability category [3]: A (>80% intact after 24 hours)
Molecule: CC[C@H](C)[C@@H]1NC(=O)[C@H](CC(C)C)NC(=O)[C@H](C)NC(=O)[C@@H](NC(=O)[C@H](CC(C)C)NC(=O)[C@H](CCC(=O)O)NC(=O)[C@@H]2CCCN2C(=O)[C@H](Cc2c[nH]c3ccccc23)NC(=O)[C@H](Cc2c[nH]c3ccccc23)NC(=O)[C@H](CC(=O)O)NC(=O)[C@H](Cc2ccc(O)cc2)NC(=O)CCC(=O)NCCCOCCOCCOCCCNC(=O)CN2CCN(CC(=O)O)CCN(CC(=O)O)CCN(CC(=O)O)CC2)CSCc2cccc(c2)CSC[C@@H](C(N)=O)NC1=O [GIP-126, DOTA-Ttds-Tyr-Asp-Trp-Trp-Pro-Glu-Leu-[Cys(3MeBn)-Ala-Leu-Ile-Cys]-NH2] ({X3-Suc}-YDWWPELCALIC-NH2; linker 8-12 via mXylylene)

IC50 [1]: 10 to 79.4 nM
Mouse plasma stability category [2]: B (>80% intact after 4 hours)
NEP stability category [3]: A (>80% intact after 24 hours)
Molecule: CC[C@H](C)[C@@H]1NC(=O)[C@H](CC(C)C)NC(=O)[C@H](C)NC(=O)[C@@H](NC(=O)[C@H](CC(C)C)NC(=O)[C@H](CCC(=O)O)NC(=O)[C@@H]2CCCN2C(=O)[C@H](Cc2c[nH]c3ccccc23)NC(=O)[C@H](Cc2c[nH]c3ccccc23)NC(=O)[C@H](CC(=O)O)NC(=O)[C@H](Cc2ccc(O)cc2)NC(C)=O)CSCc2cccc(c2)CSC[C@@H](C(=O)NCCCOCCOCCOCCCNC(=O)CCC(=O)N[C@@H](CCCCNC(=O)CN2CCN(CC(=O)O)CCN(CC(=O)O)CCN(CC(=O)O)CC2)C(N)=O)NC1=O [GIP-127, Ac-Tyr-Asp-Trp-Trp-Pro-Glu-Leu-[Cys(3MeBn)-Ala-Leu-Ile-Cys]-Ttds-Lys(DOTA)-NH2] (Ac-YDWWPELCALIC-X5; linker 8-12 via mXylylene)

IC50 [1]: 10 to 79.4 nM
Human plasma stability category [4]: B (>80% intact after 4 hours)
Mouse plasma stability category [2]: B (>80% intact after 4 hours)
NEP stability category [3]: A (>80% intact after 24 hours)
Molecule: CC[C@H](C)[C@@H]1NC(=O)[C@H](CC(C)C)NC(=O)[C@H](C)NC(=O)[C@@H](NC(=O)[C@H](CC(C)C)NC(=O)[C@H](CCC(=O)O)NC(=O)[C@@H]2CCCN2C(=O)[C@H](Cc2c[nH]c3ccccc23)NC(=O)[C@H](Cc2c[nH]c3ccccc23)NC(=O)[C@H](CC(=O)O)NC(C)=O)CSCc2cccc(c2)CSC[C@@H](C(N)=O)NC1=O [GIP-244, Ac-Asp-Trp-Trp-Pro-Glu-Leu-[Cys(3MeBn)-Ala-Leu-Ile-Cys]-NH2] (Ac-DWWPELCALIC-NH2; linker 7-11 via mXylylene)
